# Legend:
# Format in all cases: cell-based
# HTT mRNA = experiment: RT-qPCR splicing assay for HTT mRNA isoforms (canonical junction CJ and alternative junction AJ); details: A673 or K562 cell line, 24 hours compound treatment; for IC50: decrease in CJ mRNA; for AC50: increase in AJ mRNA
# Procedure: (§1) Compounds described herein were used to modulate RNA transcript abundance in cells. The expression of a target mRNA was measured by detecting the formation of an exon-exon junction in the canonical transcript (CJ). A compound mediated exon-inclusion event was detected by observing an increase in formation of a new junction with an alternative exon (AJ). Real-time qPCR assays were used to detect these splicing switches and interrogate the potency of various compounds towards different target genes. A high-throughput real time quantitative PCR (RT-qPCR) assay was developed to measure these two isoforms of the mRNA (CJ and AJ) for an exemplary gene, HTT, together with a control housekeeping gene, GAPDH or GUSB or PPIA, used for normalization. Briefly, the A673 or K562 cell line was treated with various compounds described herein (e.g., compounds of Formula (I)). After treatment, the levels of the HTT mRNA targets were determined from each sample of cell lysate by cDNA synthesis followed by qPCR.
# Cells-to-CT 1-step kit: ThermoFisher A25602, Cells-to-CT lysis reagent: ThermoFisher 4391851C, TaqMan™ Fast Virus 1-Step Master Mix: ThermoFisher 4444436 GAPDH: VIC-PL, ThermoFisher 4326317E (Assay: Hs99999905_m1)—used for K562/suspension cell lines GUSB: VIC-PL, ThermoFisher 4326320E (Assay: Hs99999908_m1)—used for K562/suspension cell lines PPIA: VIC-PL, ThermoFisher 4326316E (Assay: Hs99999904_m1)—used for A673/adherent cell lines
# (§2) The A673 cell line was cultured in DMEM with 10% FBS. Cells were diluted with full growth media and plated in a 96-well plate (15,000 cells in 100 ul media per well). The plate was incubated at 37° C. with 5% CO2 for 24 hours to allow cells to adhere. An 11-point 3-fold serial dilution of the compounds was made in DMSO then diluted in media in an intermediate plate. Compounds were transferred from the intermediate plate to the cell plate with the top dose at a final concentration of 10 uM in the well. Final DMSO concentration was kept at or below 0.25%. The cell plate was returned to the incubator at 37° C. with 5% CO2 for an additional 24 hours.
# (§3) The K562 cell line was cultured in IMDM with 10% FBS. For K562, cells were diluted with full growth media and plated in either a 96-well plate (50,000 cells in 50 uL media per well) or a 384-well plate (8,000-40,000 cells in 45 uL media per well). An 11-point 3-fold serial dilution of the compounds were made in DMSO then diluted in media in an intermediate plate. Compound was transferred from the intermediate plate to the cell plate with the top dose at a final concentration of 10 uM in the well. Final DMSO concentration was kept at or below 0.25%. Final volume was 100 uL for 96-well plate and 50 uL for 384-well plate. The cell plate was then placed in an incubator at 37° C. with 5% CO2 for 24 hours.
# (§4) The cells were then gently washed with 50 uL-100 uL cold PBS before proceeding to addition of lysis buffer. 30 uL-50 uL of room temperature lysis buffer with DNAse I (and optionally RNAsin) was added to each well. Cells were shaken/mixed thoroughly at room temperature for 5-10 minutes for lysis to take place and then 3 uL-5 uL of room temperature stop solution was added and wells were shaken/mixed again. After 2-5 minutes, the cell lysate plate was transferred to ice for RT-qPCR reaction setup. The lysates could also be frozen at −80° C. for later use.
# In some cases, a direct lysis buffer was used. An appropriate volume of 3× lysis buffer (10 mM Tris, 150 mM NaCl, 1.5%-2.5% Igepal and 0.1-1 U/uL RNAsin, pH 7.4) was directly added to either K562 or A673 cells in media and mixed by pipetting 3 times. The plates were then incubated at room temperature with shaking/rocking for 20-50 minutes to allow for lysis to take place. After this time, the cell lysate plate was transferred to ice to set up for the RT-qPCR reactions. The lysates could also be frozen at −80° C. for later use. […]
# HTT CJ mRNA = experiment: Gene panel canonical junction qPCR assay, HTT; details: decrease in CJ mRNA levels, RT-qPCR
# Procedure: as §1, §2, §3, §4
# (§5) In some cases, a direct lysis buffer was used. An appropriate volume of 3× lysis buffer (10 mM Tris, 150 mM NaCl, 1.5%-2.5% Igepal and 0.1-1 U/uL RNAsin, pH 7.4) was directly added to either K562 or A673 cells in media and mixed by pipetting 3 times. The plates were then incubated at room temperature with shaking/rocking for 20-50 minutes to allow for lysis to take place. After this time, the cell lysate plate was transferred to ice to set up for the RT-qPCR reactions. The lysates could also be frozen at −80° C. for later use.
# (§6) To set up 10 uL RT-qPCR reactions, cell lysates were transferred to 384-well qPCR plates containing the master mix according to the table below. The plates were sealed, gently vortexed, and spun down before the run. The volumes were adjusted accordingly in some instances where the reaction was carried in 20 uL. The table below summarizes the components of the RT-qPCR reactions:
# (§7) The RT-qPCR reaction was performed using a QuantStudio (ThermoFisher) under the following fast cycling conditions. […]
# SMN2 CJ mRNA = experiment: Gene panel canonical junction qPCR assay, SMN2; details: decrease in CJ mRNA levels, RT-qPCR
# Procedure: as §1, §2, §3, §4, §5, §6, §7
# Target C CJ mRNA = experiment: Gene panel canonical junction qPCR assay, Target C; details: decrease in CJ mRNA levels, RT-qPCR
# Procedure: as §1, §2, §3, §4, §5, §6, §7
Compound,IC50 (HTT mRNA) [µM],AC50 (HTT mRNA) [µM],IC50 (HTT CJ mRNA) [µM],IC50 (SMN2 CJ mRNA) [µM],IC50 (Target C CJ mRNA) [µM]
CN(c1ccc2c(n1)OCc1cc(-c3cc(=O)n(C)cn3)ccc1-2)[C@@H]1C[C@H]2CC[C@@H](C1)N2 [Compound 162],< 0.1,< 0.1,< 0.1,< 0.1,< 0.1
"CN(c1ccc2c(n1)OCc1cc(-n3cccn3)ccc1-2)[C@@H]1C[C@H]2CC[C@@H](C1)N2 [Compound 149, (exo)-N-methyl-N-[8-(pyrazol-1-yl)-6H-isochromeno[3,4-b]pyridin-3-yl]-8-azabicyclo[3.2.1]octan-3-amine]",0.1 to 1,< 0.1,0.1 to 1,0.1 to 1,0.1 to 1
c1cnn(-c2ccc3c(c2)COc2nc(N4CC5(CCCNC5)C4)ccc2-3)c1 [Compound 168],> 10,> 10,> 10,> 10,> 10
CN(c1ccc2c(n1)OCc1cc(-c3ccc(=O)[nH]c3)ccc1-2)[C@@H]1C[C@H]2CC[C@@H](C1)N2 [Compound 157],1 to 10,1 to 10,1 to 10,0.1 to 1,1 to 10
c1cnn(-c2ccc3c(c2)COc2nc(O[C@@H]4C[C@H]5CC[C@@H](C4)N5)ccc2-3)c1 [Compound 188],0.1 to 1,0.1 to 1,0.1 to 1,0.1 to 1,1 to 10
COc1cc(-c2ccc3c(c2)COc2nc(N(C)[C@@H]4C[C@H]5CC[C@@H](C4)N5)ccc2-3)cnn1 [Compound 159],< 0.1,< 0.1,< 0.1,< 0.1,< 0.1
Cc1[nH]ncc1-c1ccc2c(c1)COc1nc(N(C)[C@@H]3C[C@H]4CC[C@@H](C3)N4)ccc1-2 [Compound 154],0.1 to 1,0.1 to 1,0.1 to 1,0.1 to 1,0.1 to 1
CCN(c1ccc2c(n1)OCc1cc(-n3cccn3)ccc1-2)C1CC(C)(C)NC(C)(C)C1 [Compound 189],> 10,1 to 10,> 10,1 to 10,> 10
CN(c1ccc2c(n1)OCc1cc(-c3ccc(=O)n(C)c3)ccc1-2)[C@@H]1C[C@H]2CC[C@@H](C1)N2 [Compound 158],0.1 to 1,0.1 to 1,0.1 to 1,0.1 to 1,0.1 to 1
CN1C[C@@H]2CN(c3ccc4c(n3)OCc3cc(-n5cccn5)ccc3-4)C[C@@H]2C1 [Compound 170],1 to 10,1 to 10,1 to 10,1 to 10,> 10
CN(c1ccc2c(n1)OCc1cc(-c3cnn(C)c3)ccc1-2)[C@@H]1C[C@H]2CC[C@@H](C1)N2 [Compound 150],< 0.1,< 0.1,< 0.1,> 10,0.1 to 1
CN(c1ccc2c(n1)OCc1cc(-c3ccn(C)c(=O)c3)ccc1-2)[C@@H]1C[C@H]2CC[C@@H](C1)N2 [Compound 153],< 0.1,< 0.1,< 0.1,< 0.1,< 0.1
CN(c1ccc2c(n1)OCc1cc(-n3ccnc3)ccc1-2)[C@@H]1C[C@H]2CC[C@@H](C1)N2 [Compound 163],< 0.1,< 0.1,< 0.1,< 0.1,0.1 to 1
CN(c1ccc2c(c1)CCOc1cc(-n3cccn3)ccc1-2)[C@@H]1C[C@H]2CC[C@@H](C1)N2 [Compound 113],> 10,> 10,> 10,> 10,> 10
"CN(c1ccc2c(n1)CCOc1cc(-n3cccn3)ccc1-2)C1CC(C)(C)NC(C)(C)C1 [Compound 129, N-methyl-13-(pyrazol-1-yl)-N-(2,2,6,6-tetramethylpiperidin-4-yl)-10-oxa-6-azatricyclo[9.4.0.0^[2,7]]pentadeca-1(11),2(7),3,5,12,14-hexaen-5-amine]",> 10,> 10,> 10,> 10,> 10
CCN(c1ccc2c(n1)OCc1cc(-n3cccn3)ccc1-2)[C@@H]1C[C@H]2CC[C@@H](C1)N2 [Compound 191],0.1 to 1,1 to 10,0.1 to 1,0.1 to 1,1 to 10
CN(c1ccc2c(n1)OCc1cc(-c3cnc(=O)[nH]c3)ccc1-2)[C@@H]1C[C@H]2CC[C@@H](C1)N2 [Compound 161],> 10,> 10,> 10,> 10,> 10
"c1cc2c(cc1-c1cn[nH]c1)COc1nc(N[C@@H]3C[C@H]4CC[C@@H](C3)N4)cnc1-2 [Compound 143, (exo)-N-[8-(1H-pyrazol-4-yl)-6H-isochromeno[3,4-b]pyrazin-3-yl]-8-azabicyclo[3.2.1]octan-3-amine]",0.1 to 1,0.1 to 1,0.1 to 1,0.1 to 1,0.1 to 1
"CN(c1ccc2c(n1)COc1cc(-n3cccn3)ccc1-2)C1CC(C)(C)NC(C)(C)C1 [Compound 125, N,2,2,6,6-pentamethyl-N-[8-(pyrazol-1-yl)-5H-chromeno[3,4-b]pyridin-3-yl]piperidin-4-amine]",> 10,> 10,> 10,> 10,> 10
Cc1ncc(-c2ccc3c(c2)COc2nc(N(C)[C@@H]4C[C@H]5CC[C@@H](C4)N5)ccc2-3)o1 [Compound 155],< 0.1,< 0.1,< 0.1,< 0.1,0.1 to 1
CN(c1ccc2c(n1)OCc1cc(-n3cccn3)ccc1-2)[C@H]1C[C@]2(C)CC[C@](C)(C1)N2 [Compound 180],< 0.1,< 0.1,< 0.1,< 0.1,0.1 to 1
[2H]C([2H])([2H])N(c1ccc2c(n1)OCc1cc(-n3cccn3)ccc1-2)[C@@H]1C[C@H]2CC[C@@H](C1)N2 [Compound 201],0.1 to 1,0.1 to 1,0.1 to 1,< 0.1,0.1 to 1
c1cnn(-c2ccc3c(c2)COc2nc(N(C4CCNCC4)C4CC4)ccc2-3)c1 [Compound 202],1 to 10,> 10,1 to 10,> 10,> 10
CN(c1ccc2c(n1)OCc1cc(-n3cccn3)ccc1-2)[C@H]1[C@@H]2CNC[C@@H]21 [Compound 194],1 to 10,1 to 10,> 10,> 10,> 10

# Source: patent US20230148184A1, “COMPOUNDS AND METHODS FOR MODULATING SPLICING” (REMIX THERAPEUTICS INC., priority 2020, published 2023)
